Measurements from patent US8476064B2, “Inhibition assay method and device for detection of antibiotics” (Charm Sciences, Inc., priority 2006, dated 2013).

Assays:
[1] = tested on: B.st. spores; assay: Single service kidney swab microbial growth inhibition test, culture of Example 1, with or without beta-lactam receptor; type: cell-based, Bacillus (Geobacillus) Stearothermophilus; conditions: for test result With receptor: with 1 U receptor
Description: A Bromocresol purple (BCP)/Tris Solution was prepared by combining 25 mL of a Trizma Base solution (TBS), the solution including 2.5 grams Trizma Base in 100 mL of reverse osmosis/deionized water (RO/DI Water), with 100 milligrams of BCP and mixing well. The media was prepared by dissolving 5 grams glucose and 1 gram Mueller Hinton Broth (Mueller Hinton broth includes, in purified filtered water, 2 grams per liter (g/L) beef extract, 17.5 g/L casein hydrolysate acid and 1.5 g/L starch, pH 7.3 at 25 degrees C) into 100 mL RO/DI Water. Then a 0.01 mg/mL solution of trimethoprim in RO/DI Water was prepared and 1.2 mL was added to the media. Next 20 mL of BCP/Tris (sterile filtered through 0.45 micron filter) was added to the media.
(§1) Agar was prepared by combining 0.3 grams Difco Bacto-Agar (Item #0140-01), 0.225 NaCl and 17.485 RO/DI Water. The mixture was heated to 95° C. and then removed from the heat and allowed to cool to 75° C. Next 6 mL of media (prepared as described above with BCP/Tris) was added to the agar and mixed for 5 minutes. The mixture was cooled to 57° C. and 1 mL spore solution (concentration of 1 billion cfu/mL) was added and mixed together for 5 minutes. 0.200 mL was dispensed into the bottom of a vial 4.
The dispensed vial 4 was prepared as described in example 1. An extractant was prepared by adding 4.8 grams of 47.2% Trizma Base and 52.5% Potassium Phosphate Monobasic to 1000 mL RO/DI Water (pH should be 7.5+/−0.10). The extractant was sealed within the niblet 5 and the niblet was added to the vial 4. The vial 4 was heat sealed with foil.
The single service kidney swab procedure was run by first making a 3 inch incision into kidney. The swab 1 was then withdrawn from the test unit, the test unit in the form of a POCKETSWAB, by gently pulling and twisting the handle 2 out of the test unit body 7. The swab 1 was then inserted into the incision of the kidney and allowed to sit for 15 minutes to allow full absorption of liquid into the swab 1. The swab 1 was reinserted by gently pushing down and twisting to engage the threads 6 and screwing the handle down slowly about halfway. The swab tip 3 punctured the seals 12, 13 & 14 immersing the swab tip 3 into the extractant within the niblet 5 where it sat for 2 minutes. The swab 1 was then screwed down all the way. After shaking and tapping the vial 4 to get residual liquid into the bottom of the vial 4 and in contact with the culture 15, we placed the vial 4 into a heat block set at 67° C. and incubated for 2.5 hours (if urine is tested instead of kidney, incubate for 4 hours).
Culture is prepared as in Example 1. Prior to dispensing 200 microliters into the vial 4, antibiotic binder is prepared, in this example an antibiotic binder from the cell wall of B.st., also known as receptor. Varying amounts of inhibitory receptor units are mixed into the culture. Receptor is defined as protein removed from cellular membrane of B.st. A receptor unit (1 U) is the amount of receptor that will, in the test, reverse the culture growth inhibition of 12.5 ppb of penicillin G.
Results in Table 1 are from tests using the culture described in Example 1 and with the addition of receptor added into rinse buffer (rinse buffer composition is 4.8 grams of 47.2% Trizma Base and 52.5% Potassium Phosphate Monobasic to 1000 mL RO/DI Water) at 0, 0.3 units (U), 1.0 U, 2.0 U, 5.0 Upper test. Sample contained the following amounts of penicillin G: 0, 5 parts per billion (ppb), 10 ppb, 12.5 ppb, 25 ppb and 50 ppb. As shown, 1.0 U was able to reverse the result of a 12.5 ppb penicillin G sample. Results are either positive (+) or negative (−).
Results are either positive (+), negative (−) or borderline between positive and negative (+/−). Abbreviations are penicillin G (PenG); sulfamethazine (SMZ); sulfadimethoxine (SDM); tylosin (TY); gentamicin (G); oxytetracycline (OT). […]

[2] = tested on: B.st. spores; assay: Antibiotic detection test in spiked milk, borate/succinate culture of Example 6 (Table 4); type: cell-based, Bacillus (Geobacillus) Stearothermophilus; set-up: key to Color 1 / Color 2: Color result 1 and 2 is a negative result; Color result 1 and 2 is a negative result; 3 is a borderline result; 4 and 5 is a positive result; 4 and 5 is a positive result; conditions: for % Pos (Color 2) / Color 2: after 16 hours at room temperature; for % Pos (Color 1) / Color 1: immediately after test completion
Description: BCP/Borate/Succinate Solution was prepared by adding 3.8 grams of Borate and 6 grams Succinate to 100 mL of reverse osmosis/deionized water (RO/DI Water) in 125 mL flask. 50 milligrams of BCP was added to a 50 mL conical tube and 5 mL of Borate/Succinate solution was added to the 50 milligrams BCP and mixed.
To prepare media 5 grams glucose and 1 gram Mueller Hinton Broth was dissolved in 100 mL RO/DI Water. 1.2 mL of a 0.01 mg/mL solution of trimethoprim in RO/DI Water was prepared and added to the media. A 20 mL of BCP/Borate/Succinate was added to the media and the media was sterile filtered through a 0.45 micron filter and then cooled to 4 degrees C.
as §1, with “each of the vials.” for “a vial 4.”
In test operation 200 microliters of various milk sample, spiked with known concentrations of antibiotics, were pipetted into test vials and incubated for the prescribed time (in this test 2 hours 10 minutes) and prescribed temperature (64 degrees C.+/−2 degrees C.). Incubation was in the Charm I Inctronic incubator. Results were recorded immediately after test completion (Color 1) and after being left at room temperature for 16 hours (Color 2). Results listed are in parts per billion (ppb). 4 samples were run at each concentrations except for raw negative milk (16 samples) and 3 ppb pen G (2 samples) and amoxicillin (2 samples). Abbreviations are penicillin G (PenG); sulfamethazine (SMZ); sulfadimethoxine (SDM); tylosin (TY); gentamicin (G); oxytetracycline (OT); pirlimycin (Pirl); amoxicillin (Amox); ampicillin (Amp); cloxacillin (Clox); ceftiofur sodium (Ceft); cephaprin (Ceph); tilmicosin (Til); sulfadoxine (SDN); neomycin (Neo). Color result 1 and 2 is a negative result, 3 is a borderline result and 4 and 5 is a positive result.

[3] = drug concentration 300 (unit not given)
[4] = drug concentration 500 (unit not given)
[5] = drug concentration 800 (unit not given)
[6] = drug concentration 400 (unit not given)
[7] = drug concentration 600 (unit not given)

Compound: CC[C@H]1OC(=O)C[C@@H](O)[C@H](C)[C@@H](O[C@@H]2O[C@H](C)[C@@H](O[C@H]3C[C@@](C)(O)[C@@H](O)[C@H](C)O3)[C@H](N(C)C)[C@H]2O)[C@@H](CC=O)C[C@@H](C)C(=O)/C=C/C(C)=C/[C@@H]1CO[C@@H]1O[C@H](C)[C@@H](O)[C@@H](OC)[C@H]1OC [TY, tylosin]
- test result w/out receptor [1, 3]: +/−
- test result With receptor [1, 3]: +/−
- test result w/out receptor [1, 4]: +
- test result With receptor [1, 4]: +
- test result w/out receptor [1, 5]: +
- test result With receptor [1, 5]: +
- % Pos (Color 2) ([2]; milk spiked at 40 ppb): 100%
- Color 2 ([2]; milk spiked at 40 ppb): 4
- % Pos (Color 1) ([2]; milk spiked at 40 ppb): 100%
- Color 1 ([2]; milk spiked at 40 ppb): 5
- % Pos (Color 2) ([2]; milk spiked at 50 ppb): 100%
- Color 2 ([2]; milk spiked at 50 ppb): 5
- % Pos (Color 1) ([2]; milk spiked at 50 ppb): 100%
- Color 1 ([2]; milk spiked at 50 ppb): 5

Compound: gentamicin
- test result w/out receptor [1, 6]: +/−
- test result With receptor [1, 6]: +/−
- test result w/out receptor [1, 7]: +/−
- test result With receptor [1, 7]: +/−
- test result w/out receptor [1, 5]: +/−
- test result With receptor [1, 5]: +/−
- % Pos (Color 2) ([2]; milk spiked at 300 ppb): 100%
- Color 2 ([2]; milk spiked at 300 ppb): 4
- % Pos (Color 1) ([2]; milk spiked at 300 ppb): 100%
- Color 1 ([2]; milk spiked at 300 ppb): 4
- % Pos (Color 2) ([2]; milk spiked at 400 ppb): 100%
- Color 2 ([2]; milk spiked at 400 ppb): 5
- % Pos (Color 1) ([2]; milk spiked at 400 ppb): 100%
- Color 1 ([2]; milk spiked at 400 ppb): 5
